Source: US20230312601A1, “THIAZOLO[5,4-B]PYRIDINE MALT-1 INHIBITORS” (AbbVie Inc., priority 2022, published 2023)

Experiments:
human MALT-1 protein = human MALT-1 protein (Homo sapiens (Human), UniProt Q9UDY8); test: MALT-1 Biochemical Assay (Quench-FRET enzyme assay); conditions: human MALT-1 6 nM, substrate 2 μM, 40 min preincubation
Excerpt: A Quenched Fluorescence Resonance Energy Transfer (Quench-FRET) enzyme assay was used to test the ability of exemplary MALT-1 inhibitors Example 1 to Example 39 to inhibit the cleavage of a MALT1 specific quenched fluorescent substrate of sequence [TAMRA-PEG2-Leu-Val-Ser-Arg-Gly-Ala-Ala-Ser-PEG2-K(QSY7) by human MALT-1 protein; where TAMRA is 6-carboxytetramethylrhodamine, PEG2 is 2-(2-(2-aminoethoxy)ethoxyamide linker, QSY7 is a non-fluorescent quenching dye (Thermo-Fisher catalog #Q10193). The assay was performed by pre-dispensing compounds into 384 well Proxiplates™ (PE 6008289). Human MALT-1 (6 nM) was prepared using the assay buffer (25 mM HEPES pH 7.5, 1 mM ethylenediaminetetraacetic acid, 0.8 M sodium citrate, 0.005% Bovine serum albumin (BSA), 2 mM dithiothreitol (DTT)) and added to the compound plates. The plates were incubated 40 minutes at room temperature. The reaction was carried out by adding the substrate (2 μM) to the plates and incubating for 60 minutes at room temperature. A fluorescence readout was then measured using a PE EnVision® reader (Ex.535/Em.590). […] EC50 is defined as the half maximal effective concentration of compound to inhibit MALT-1 protease activity.

OCI-LY3 IL6 = test: MALT-1 Cell IL-6 AlphaLISA Assay; format: cell-based; conditions: Homo sapiens; OCI-LY3 cells, 48 hours incubation; read-out: OCI-LY3 IL6 48 hour Inhibition EC50
Method: The following MALT-1 Cell Interleukin-6 (IL-6) AlphaLISA assay was conducted using a Perkin Elmer® IL-6 AlphaLISA® detection kit (PE AL223). The IL-6 detection assay is a homogeneous immunoassay that detects human IL-6 present in the cell culture medium in the MALT-1 dependent human ABC-DLBCL cell line, OCI-LY3. Compounds were pre-dispensed into Black 384w microtiter plates (Greiner, 781090) from 30 μM to 1.5 nM. Viable OCI-LY3 cells were then seeded on top of compounds at a seeding density of 50,000 cells/mL. Plates were then placed into 37° C. incubators for 48 hours. After 48 hours incubation, 2 μL of cell medium from each well was transferred into white ProxiPlates™ (PE 6008289). A fresh mix of AlphaLISA Acceptor beads (10 μg/mL) and Biotinylated IL-6 Antibody (1 nM) was made in AlphaLISA Immunoassay buffer and added to all wells (4 μL). The plates were incubated for 60 minutes at room temperature. Streptavidin donor beads (40 μg/mL) were prepared using the assay buffer and added to all wells (5 The plates were incubated for 30 minutes at room temperature and read using PE EnVision® reader. Results are shown in Table 3.

CYP 3A4 mRNA = test: CYP3A4 Induction Assay (qPCR, human hepatocytes); format: in vitro ADME; conditions: 10 μM compound, relative to rifampicin 10 μM
Method: (§1) CYP induction by compounds of the Examples was evaluated in vitro by determining the expression levels of CYP 3A4 mRNA using the qPCR (quantitative polymerase chain reaction) assay. On day one, cryopreserved human hepatocytes were thawed in prewarmed (37° C.) thawing medium (cryopreserved hepatocyte recovery medium, Gibco™ CM 7000; Thermo Fisher Scientific), centrifuged (1000 g for 10 minutes) and resuspended in plating medium (Gibco™ CM3000—Williams Medium E supplemented with hepatocytes plating supplement pak-serum containing; Thermo Fisher Scientific). Cells were counted by trypan blue exclusion using a hemocytometer and adjusted to a cell density of […]. Thereafter, […] of cell suspension was aliquoted per well in a 96-well plate, resulting in 60,000 cells/well. Plates were shaken in the north-south and east-west direction during plating. Plated cells were incubated at 37° C/5% CO2 in a humidified cell culture incubator for 4-6 hours. During this time, incubation medium (Gibco™ CM4000, cell maintenance supplement pack; Thermo Fisher Scientific) was mixed with Gibco™ Geltrex™ (Thermo Fischer Scientific) at the appropriate GeltrexTM protein concentration. Following recovery, medium was removed from cells and replaced with freshly prepared incubation medium. Cells were incubated overnight in a cell culture incubator (37° C./5% CO2).
(§2) The next day the incubation medium was prepared by combining the hepatocyte maintenance supplement pack with Williams Medium E. The medium was warmed to 37° C. 1000× dimethyl sulfoxide compound stocks of the compounds of the Examples were prepared to the desired concentrations. 10 mM compound stocks in dimethyl sulfoxide were diluted (1 μL to 1 mL CM4000; final concentration=10 μM). Overlay medium was aspirated and […] dose solution added to the desired labeled 96 well plate. Cells were then dosed with compound (10 μM) and prototypical induces at the targeted concentrations either 50 i.tM for omeprazole (Sigma 0104/lotBCBF-2161V) or 10 i.tM for rifampicin (Sigma R3501/lot 011M1159V). A negative control, probenecid, was dosed at 10 i.tM (Sigma P8761/lot 013K0148).
(§3) On day 3, RNA isolation was performed. All surfaces were cleaned using RNase RNAy. Total RNA was isolated using MagMAX Express 96 RNA Isolation System (Life Technologies, AM1830). Briefly, hepatocytes were washed once with 1X PBS (phosphate buffered saline). 145 μL of RNA Lysis Buffer was added to each well and each well was mixed by pipetting several times. Lysate was then transferred to a well of a 96 well Binding Plate. Samples were then mixed with 20 μL magnetic beads coming from the kit. RNA bound to beads was then captured by the magnetic tip manifold and beads were washed with the wash solution. Samples were treated with TURBOTmDNase. After TURBOTmDNase treatment, RNA was rebound to beads and washed with the provided wash buffer an additional two times. Beads are then dried, and RNA was eluted with 50 μL elution buffer. The eluted mRNA was transferred from the wells to RNase-free sealable microtiter plates and stored at -80° C. until use.
(§4) Following mRNA isolation, reverse transcription (RT) reactions were performed using TaqmanTm Reverse Transcription Reagents (ThermoFisher Scientific). RT master mix was prepared by mixing 2.5 μL 10× RT buffer, 5.5 μL 25 mM MgCl2, 5μL deoxyNTP mixture, 1.25 50 mM random hexamers, 0.5 μL 2× RNAse inhibitor, 0.625 μL multiscript RTase (50U/μL) and 0.625 μL water. An aliquot of RT mix (16 μL) and an aliquot of mRNA sample (9 μL) was added to each well of a 96-well plate. The SimpliAmpTM Thermal cycler PCR System VIIA7 from Applied Biosystems was used for reverse transcription under the following conditions: segment 1: 25° C. for 10 minutes; segment 2: 45° C. for 45 minutes; segment 3: 95° C. for 5 minutes; and segment 4: 4° C. hold; with 1 cycle for each segment. […]

CYP3A4 mRNA = test: CYP3A4 Induction Assay (qPCR, human hepatocytes); format: in vitro ADME; conditions: cryopreserved human hepatocytes (plated), 10 μM compound, mRNA fold over vehicle (0.1% DMSO)
Method: as §1, §2, §3, §4

Chain of human MALT-1 protein (Q9UDY8 whole entry): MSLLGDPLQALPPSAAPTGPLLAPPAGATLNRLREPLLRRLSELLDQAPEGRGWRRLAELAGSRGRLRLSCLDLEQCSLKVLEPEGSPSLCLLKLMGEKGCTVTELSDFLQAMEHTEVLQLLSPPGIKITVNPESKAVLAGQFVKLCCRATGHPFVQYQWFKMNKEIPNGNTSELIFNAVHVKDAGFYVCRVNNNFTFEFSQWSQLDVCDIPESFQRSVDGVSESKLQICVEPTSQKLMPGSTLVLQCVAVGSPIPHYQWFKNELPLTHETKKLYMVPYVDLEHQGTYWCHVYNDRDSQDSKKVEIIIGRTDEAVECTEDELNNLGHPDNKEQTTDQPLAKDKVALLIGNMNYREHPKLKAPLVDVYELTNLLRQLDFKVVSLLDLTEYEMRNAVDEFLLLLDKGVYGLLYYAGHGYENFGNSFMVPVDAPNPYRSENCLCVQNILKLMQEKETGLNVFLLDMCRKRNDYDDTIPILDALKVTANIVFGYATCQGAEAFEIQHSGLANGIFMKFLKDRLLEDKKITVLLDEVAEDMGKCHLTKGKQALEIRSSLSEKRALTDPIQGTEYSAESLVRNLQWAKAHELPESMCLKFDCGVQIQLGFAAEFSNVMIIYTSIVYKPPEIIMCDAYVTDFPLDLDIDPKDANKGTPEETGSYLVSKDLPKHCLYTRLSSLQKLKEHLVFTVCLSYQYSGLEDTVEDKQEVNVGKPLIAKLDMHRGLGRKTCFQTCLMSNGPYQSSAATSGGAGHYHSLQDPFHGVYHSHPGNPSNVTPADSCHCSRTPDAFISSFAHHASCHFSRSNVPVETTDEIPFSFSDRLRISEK

With `CO[C@H](c1c(Nc2ccc([C@H](N(C)C(=O)C3CCN(C(=O)CO)CC3)C(F)(F)F)cc2)cnc2sc(C)nc12)C(F)F` [Example 21, N-{(1S) -1-[4-({7-[(1R)-2,2-difluoro-1-methoxyethyl]-2-methyl[1,3]thiazolo[5,4-b]pyridin-6-yl}amino)phenyl]-2,2,2-trifluoroethyl}-1-(hydroxyacetyl)-N-methylpiperidine-4-carboxamide] the EC50 (human MALT-1 protein) was 141 nM, the EC50 (OCI-LY3 IL6) was 670 nM and the “CYP3A4 % of positive control (%)” value (CYP 3A4 mRNA) was “(5.55) %”. The fold induction at 1 day, 10 µM (CYP3A4 mRNA) was 1.29.
`CO[C@@H](C)c1c(Nc2ccc([C@H](N(C)C(=O)C3CCN(C(=O)CCO)CC3)C(F)(F)F)cc2)cnc2sc(C)nc12` [Example 22, 1-(3-hydroxypropanoyl)-N-methyl-N-{(1S)-2,2,2-trifluoro-1-[4-({7-[(1S)-1-methoxyethyl]-2-methyl[1,3]thiazolo[5,4-b]pyridin-6-yl}amino)phenyl]ethyl}piperidine-4-carboxamide] was tested, and the EC50 (human MALT-1 protein) was 228 nM, the EC50 (OCI-LY3 IL6) was 380 nM and the “CYP3A4 % of positive control (%)” value (CYP 3A4 mRNA) was “(1.16) %”. The fold induction at 1 day, 10 µM (CYP3A4 mRNA) was 1.09.
In the case of `CO[C@@H](C)c1c(Nc2ccc([C@H](N(C)C(=O)C3CCN(C(=O)C(C)(C)O)CC3)C(F)(F)F)cc2)cnc2sc(C)nc12` [Example 23, 1-(2-hydroxy-2-methylpropanoyl)-N-methyl-N-{(1S)-2,2,2-trifluoro-1-[4-({7-[(1S)-1-methoxyethyl]-2-methyl[1,3]thiazolo[5,4-b]pyridin-6-yl}amino)phenyl]ethyl}piperidine-4-carboxamide], the EC50 (human MALT-1 protein) is reported as 139 nM, the EC50 (OCI-LY3 IL6) is reported as 210 nM and the “CYP3A4 % of positive control (%)” value (CYP 3A4 mRNA) is reported as “(−4.35) %”. For the same molecule, the fold induction at 1 day, 10 µM (CYP3A4 mRNA) was 0.677.
For `CO[C@@H](C)c1c(Nc2ccc([C@H](N(C)C(=O)C3CCN(C(=O)C(O)CO)CC3)C(F)(F)F)cc2)cnc2sc(C)nc12` (stereo partly drawn) [Example 24, 1-(2,3-dihydroxypropanoyl)-N-methyl-N-{(1S)-2,2,2-trifluoro-1-[4-({7-[(1S)-1-methoxyethyl]-2-methyl[1,3]thiazolo[5,4-b]pyridin-6-yl}amino)phenyl]ethyl}piperidine-4-carboxamide], the EC50 (human MALT-1 protein) was 979 nM, the EC50 (OCI-LY3 IL6) was 12200 nM and the “CYP3A4 % of positive control (%)” value (CYP 3A4 mRNA) was “(7.62) %”. The fold induction at 1 day, 10 µM (CYP3A4 mRNA) was 1.49.
In the case of `CO[C@@H](C)c1c(Nc2ccc([C@H](N(C)C(=O)C3CCN(C(=O)[C@@H](C)O)CC3)C(F)(F)F)cc2)cnc2sc(C)nc12` [Example 25, 1-[(2R)-2-hydroxypropanoyl]-N-methyl-N-{(1S)-2,2,2-trifluoro-1-[4-({7-[(1S)-1-methoxyethyl]-2-methyl[1,3]thiazolo [5,4-b]pyridin-6-yl}amino)phenyl]ethyl}piperidine-4-c arboxamide], the EC50 (human MALT-1 protein) is reported as 67 nM, the EC50 (OCI-LY3 IL6) is reported as 250 nM and the “CYP3A4 % of positive control (%)” value (CYP 3A4 mRNA) is reported as “(2.45) %”. It also gave a fold induction at 1 day, 10 µM (CYP3A4 mRNA) of 1.16.
`CO[C@@H](C)c1c(Nc2ccc([C@H](N(C)C(=O)C3CCN(C(=O)[C@H](C)O)CC3)C(F)(F)F)cc2)cnc2sc(C)nc12` [Example 26, 1-[(2S)-2-hydroxypropanoyl]-N-methyl-N-{(1S)-2,2,2-trifluoro-1-[4-({7-[(1S)-1-methoxyethyl]-2-methyl[1,3]thiazolo [5,4-b]pyridin-6-yl}amino)phenyl]ethyl}piperidine-4-c arboxamide] was tested, and the EC50 (human MALT-1 protein) was 393 nM, the EC50 (OCI-LY3 IL6) was 1150 nM and the “CYP3A4 % of positive control (%)” value (CYP 3A4 mRNA) was “(2.57) %”. It also gave a fold induction at 1 day, 10 µM (CYP3A4 mRNA) of 1.17.
For `CO[C@@H](C)c1c(Nc2ccc([C@H](N(C)C(=O)C3CCN(C(=O)[C@H](O)CO)CC3)C(F)(F)F)cc2)cnc2sc(C)nc12` [Example 27, 1-[(2R)-2,3-dihydroxypropanoyl]-N-methyl-N-{(1S)-2,2,2-trifluoro-1-[4-({7-[(1 S)-1-methoxyethyl]-2-methyl[1,3]thiazolo [5,4-b]pyridin-6-yl}amino)phenyl]ethyl}piperidine-4-carboxamide], the EC50 (human MALT-1 protein) was 70 nM, the EC50 (OCI-LY3 IL6) was 410 nM and the “CYP3A4 % of positive control (%)” value (CYP 3A4 mRNA) was “(7.55) %”. It also gave a fold induction at 1 day, 10 µM (CYP3A4 mRNA) of 1.47.
With `CO[C@@H](C)c1c(Nc2ccc([C@@H](C(F)F)N(C)C(=O)C3CCN(C(=O)CO)CC3)cc2)cnc2sc(C)nc12` [Example 28, N-{(1S)-2,2-difluoro-1-[4-({7-[(1S)-1-methoxyethyl]-2-methyl[1,3]thiazolo[5,4-b]pyridin-6-yl}amino)phenyl]ethyl}-1-(hydroxyacetyl)-N-methylpiperidine-4-carboxamide] the EC50 (human MALT-1 protein) was 138 nM, the EC50 (OCI-LY3 IL6) was 420 nM and the “CYP3A4 % of positive control (%)” value (CYP 3A4 mRNA) was “(15.1) %”. It also gave a fold induction at 1 day, 10 µM (CYP3A4 mRNA) of 2.24.
In the case of `CO[C@@H](C)c1c(Nc2ccc([C@@H](C(F)F)N(C)C(=O)C3CCN(C(C)=O)CC3)cc2)cnc2sc(C)nc12` [Example 29, 1-acetyl-N-{(1S)-2,2-difluoro-1-[4-({7-[(1S)-1-methoxyethyl]-2-methyl[1,3]thiazolo[5,4-b]pyridin-6-yl}amino)phenyl]ethyl}-N-methylpiperidine-4-carboxamide], the EC50 (human MALT-1 protein) is reported as 232 nM, the EC50 (OCI-LY3 IL6) is reported as 300 nM and the “CYP3A4 % of positive control (%)” value (CYP 3A4 mRNA) is reported as “(27.8) %”. The fold induction at 1 day, 10 µM (CYP3A4 mRNA) was 3.29.
For `CO[C@@H](C)c1c(Nc2ccc([C@H](N(C)C(=O)C3CCN(C(=O)[C@@H](O)CO)CC3)C(F)(F)F)cc2)cnc2sc(C)nc12` [Example 30, 1-[(25)-2,3-dihydroxypropanoyl]-N-methyl-N-{(1S)-2,2,2-trifluoro-1-[4-({7-[(1S)-1-methoxyethyl]-2-methyl[1,3]thiazolo[5,4-b]pyridin-6-yl}amino)phenyl]ethyl}piperidine-4-carboxamide], the EC50 (human MALT-1 protein) was 82 nM, the EC50 (OCI-LY3 IL6) was 710 nM and the “CYP3A4 % of positive control (%)” value (CYP 3A4 mRNA) was “(5) %”. It also gave a fold induction at 1 day, 10 µM (CYP3A4 mRNA) of 1.49.
